Test system: not listed separately
Assay: Inhibition of beta-hematin polymerization after 24 hr by spectrophotometric analysis
Format: physicochemical

Row | Compound | IC50 [µM]
1 | Brc1cc2c(c3ncccc13)Oc1cc(Br)c3cccnc3c1O2 | 2780
2 | Clc1ncccc1Oc1cc2c(c3ncccc13)Oc1ncccc1O2 | 2110
3 | Brc1cc2c(c3ncccc13)Oc1ncccc1O2 | 2170
4 | CCN(CC)CCCC(C)Nc1ccnc2cc(Cl)ccc12 (stereo not given) [CHLOROQUINE] | 1890

Test system: Plasmodium falciparum
Assay: Antiplasmodial activity against chloroquine-sensitive Plasmodium falciparum after 30 to 34 hr by schizont maturation assay
Format: functional, organism-based

Row | Compound | IC50 [µM]
5 | Brc1cc2c(c3ncccc13)Oc1cc(Br)c3cccnc3c1O2 | 7.4
6 | Clc1ncccc1Oc1cc2c(c3ncccc13)Oc1ncccc1O2 | 3.7
7 | Brc1cc2c(c3ncccc13)Oc1ncccc1O2 | 6.4

Test system: Plasmodium falciparum
Assay: Antiplasmodial activity against chloroquine-sensitive Plasmodium falciparum assessed as vacuolar accumulation ratio
Format: functional

Row | Compound | Ratio
8 | Brc1cc2c(c3ncccc13)Oc1cc(Br)c3cccnc3c1O2 | 1.01
9 | Clc1ncccc1Oc1cc2c(c3ncccc13)Oc1ncccc1O2 | 1.2
10 | Brc1cc2c(c3ncccc13)Oc1ncccc1O2 | 1.03

From ChEMBL document CHEMBL3046805, “Synthesis and antimalarial evaluation of novel pyridine quinoline hybrids” (Med Chem Res, 2008)
